Biological target: T1, human orexin type 2 receptor (hOX2R) (Homo sapiens, UniProt O43614)
T1 construct: expressed in transfected cells
T1 sequence (O43614 1-444): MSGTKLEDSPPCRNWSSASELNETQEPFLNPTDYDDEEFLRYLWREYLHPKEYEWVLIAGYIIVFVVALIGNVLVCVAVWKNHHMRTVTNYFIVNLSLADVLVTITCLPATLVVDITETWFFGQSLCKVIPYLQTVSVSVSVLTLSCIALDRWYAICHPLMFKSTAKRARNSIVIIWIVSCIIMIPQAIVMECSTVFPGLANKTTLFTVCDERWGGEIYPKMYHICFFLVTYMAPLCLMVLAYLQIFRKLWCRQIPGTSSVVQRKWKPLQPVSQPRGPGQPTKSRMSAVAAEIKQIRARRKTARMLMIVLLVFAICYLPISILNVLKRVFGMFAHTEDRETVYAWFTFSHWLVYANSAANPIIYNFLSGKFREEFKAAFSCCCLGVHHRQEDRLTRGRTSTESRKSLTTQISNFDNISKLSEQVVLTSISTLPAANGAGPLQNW
Test: Orexin type 2 receptor agonist activity, intracellular Ca2+ (FLIPR TETRA)
Type: cell-based
Conditions: CHO cells expressing hOX2R, Ca2+ fluorescence area; for EC50: read-out: hOx2 pEC50 (converted)
Experimental: Stable cell line generation. Obtainment of cells stably expressing either human orexin type 2 or human orexin type 1 receptor; to obtain a stable cell line the Orexin receptor cDNA was inserted into pcDNA3.1(+) plasmid vector and clones identified by G418 drug resistance selection. […] A single clone for OX2R-CHO and OX1R-CHO were grown in bulk and frozen to generate a cell bank for routine screening.
Measurement of orexin type 2 receptor agonist activity. Chinese hamster ovary (CHO) cells expressing human orexin type 2 receptor (hOX2R) or human orexin type 1 receptor (hOX1R) were seeded in each well of 384 well black clear bottom plates (BD Flacon) at 10,000 cells per well and cultured for 24 hr in an Ham's F12 (Gibco) medium containing 10% fetal calf serum (Sigma Aldrich) under the conditions of 37° C., 5% CO2. After removal of the medium, 50 μl of assay buffer 1 (0.1% bovine serum albumin (Sigma Aldrich), 20 mM HEPES (Molecular Dimensions), […] probenecid (Sigma Aldrich), 1× Calcium 5 dye (Molecular Devices) in Hank's balanced salt solution (Invitrogen)) was added, and the cells were incubated for 60 min under the conditions of 37° C., 5% CO2. A test compound was dissolved in dimethyl sulfoxide (Sigma Aldrich) to 10 mM, and then diluted with assay buffer 2 (20 mM HEPES, Hank's balanced salt solution, 0.1% bovine serum albumin). For the reaction, a test compound solution (10 μl) was added using Fluorescent Imaging Plate Reader TETRA (FLIPR TETRA: manufactured by Molecular Devices), a fluorescence value (excitation wavelength 488 nm, measurement wavelength 570 nm) of each well was measured every one second for 2 min, and the agonist activity was determined using the area of the fluorescence value as an indicator of intracellular Ca^2+ concentration. The agonist activity of the test compound was calculated assuming that the fluorescence value of the well added with only the dilution buffer was 0% and the fluorescence value of the well added with 10 nM human orexin A (Tocris) buffer was 100%. As used herein, Emax indicates the value at 10 μM concentration when orexin A is converted to a full agonist (maximum value of agonist activity: 100%).

Row | EC50 [nM] | Compound | hOx2 pEC50
1 | 10 to 100 | CCS(=O)(=O)NC1CCN2C(=O)CC/C=C/Cc3ccccc3-c3cccc(c3)CC12 (racemic) [Compound A1-53, (E/Z)—N-(5-oxo-4(2,1)-pyrrolidina-1(1,2),2(1,3)-dibenzenacyclodecaphan-8-en-4^3-yl)ethanesulfonamide] | –
2 | 10 to 100 | CCS(=O)(=O)NC1CCN2C(=O)OCCCCCc3ccccc3-c3cccc(c3)CC12 (racemic) [Compound A1-54, N-(5-oxo-6-oxa-4(2,1)-pyrrolidina-1(1,2),2(1.3)-dibenzenacyclo-undecaphane-4^3-yl)ethanesulfonamide] | –
3 | 100 to 1000 | CCS(=O)(=O)NC1CCN2C(=O)OCC/C=C\Cc3ccccc3-c3cccc(c3)CC12 (racemic) [Compound A1-56, (E/Z)—N-(5-oxo-6-oxa-4(2,1)-pyrrolidina-1(1,2),2(1,3)-dibenzenacyclo-undecaphan-9-en-4^3-yl)ethanesulfonamide] | –
4 | 0.1 to 1 | CCS(=O)(=O)N[C@H]1CCN2C(=O)NCCCCCc3ccccc3-c3cccc(c3)C[C@@H]12 (single isomer, unassigned) [Compound A1-42, N-((4^2S,4^3S)-5-oxo-6-aza-4(2,1)-pyrrolidina-1(1,2),2(1,3)-dibenzenacycloundecaphane-4^3-yl)ethanesulfonamide] | –
5 | 100 to 1000 | CCS(=O)(=O)N[C@@H]1CCN2C(=O)NCCCCCc3ccccc3-c3cccc(c3)C[C@H]12 (single isomer, unassigned) [Compound A1-43, N-((4^2R,4^3R)-5-oxo-6-aza-4(2,1)-pyrrolidina-1(1,2),2(1,3)-dibenzenacycloundecaphane-4^3-yl)ethanesulfonamide] | –
6 | 1 to 10 | CS(=O)(=O)N[C@@H]1CCCN2C(=O)NCCOc3ccccc3-c3cccc(c3)C[C@H]12 [Compound A1-3, N-((4^2R,4^3R)-5-oxo-9-oxa-6-aza-4(2,1)-piperidina-1(1,2),2(1,3)-dibenzenacyclo-nonaphane-4^3-yl)methanesulfonamide] | –
7 | 100 to 1000 | CS(=O)(=O)N[C@H]1CCCN2C(=O)NCCOc3ccccc3-c3cccc(c3)C[C@@H]12 [Compound A1-4, N-((4^2S,4^3S)-5-oxo-9-oxa-6-aza-4(2,1)-piperidina-1(1,2),2(1,3)-dibenzenacyclo-nonaphane-4^3-yl)methanesulfonamide] | –
8 | 10 to 100 | CCS(=O)(=O)N[C@H]1CCN2C(=O)NCCOc3ccccc3-c3cccc(c3)C[C@@H]12 [Compound A1-7, N-((4^2S,4^3S)-5-oxo-9-oxa-6-aza-4(2,1)-pyrrolidina-1-(1,2),2-(1,3)-dibenzenacyclo-nonaphane-4′-yl)ethanesulfonamide] | –
9 | 0.1 to 1 | CCS(=O)(=O)N[C@H]1CCN2C(=O)N(C)CCCCCc3ccccc3-c3cccc(c3)C[C@@H]12 [Compound A1-10, N-((4^2S,4^3S)-6-methyl-5-oxo-6-aza-4(2,1)-pyrrolidina-1(1,2),2(1,3)-dibenzena-cycloundecaphane-4^3-yl)ethanesulfonamide] | –
10 | – | CCS(=O)(=O)NC1CCN2C(=O)OCCOc3ccccc3-c3cccc(c3)CC12 (stereo not shown) [Compound A1-22, N-(5-oxo-6,9-dioxa-4(2,1)-pyrrolidina-1(1,2),2(1.3)-dibenzenacyclo-nonaphane-4^3-yl)ethanesulfonamide] | ++ (7.0≤“++”<8.0)
11 | – | CCS(=O)(=O)NC1CCN2C(=O)NCCCCCOc3ccccc3-c3cccc(c3)CC12 (stereo not shown) [Compound A1-23, N-(5-oxo-12-oxa-6-aza-4(2,1)-pyrrolidina-1(1,2),2(1,3)-dibenzenacyclo-dodecaphane-43-yl)ethanesulfonamide] | + (6.0≤“+”<7.0)
12 | 10 to 100 | CS(=O)(=O)NC1CCCN2C(=O)CCCc3ccccc3-c3cccc(c3)CC12 (stereo not shown) [Compound A1-59] | –
13 | 10 to 100 | CS(=O)(=O)N[C@H]1CCCN2C(=O)OCCOc3ccccc3-c3cccc(c3)C[C@@H]12 [Compound A1-60] | –
14 | 10 to 100 | CN1CCOc2ccccc2-c2cccc(c2)C[C@H]2[C@@H](NS(C)(=O)=O)CCN2C1=O [Compound A1-61] | –
15 | 10 to 100 | CS(=O)(=O)NC1CCCN2C(=O)OCCOc3ccccc3-c3cccc(c3)CC12 (stereo not shown) [Compound A1-63] | –
16 | 10 to 100 | CS(=O)(=O)N[C@H]1CCCN2C(=O)CCCOc3ccccc3-c3cccc(c3)C[C@@H]12 [Compound A1-64] | –
17 | 10 to 100 | CCS(=O)(=O)NC1CCN2C(=O)N3CC[C@H]3COc3ccccc3-c3cccc(c3)CC12 (stereo partly shown) [Compound A1-65] | –

Row | EC50 [nM] | Compound | hOx2 pEC50
18 | 10 to 100 | CS(=O)(=O)N[C@H]1CCN2C(=O)C(F)(F)CCCCCc3ccccc3-c3cccc(c3)C[C@@H]12 [Compound A1-66] | –
19 | 10 to 100 | CS(=O)(=O)N[C@H]1CCCN2C(=O)CCCc3ccccc3-c3cccc(c3)C[C@@H]12 [Compound A1-67] | –
20 | 10 to 100 | CS(=O)(=O)N[C@H]1CCCN2C(=O)CCOc3ccccc3-c3cccc(c3)C[C@@H]12 [Compound A1-68] | –
21 | 10 to 100 | CCS(=O)(=O)N[C@H]1CCN2C(=O)N(C)CCOc3ccccc3-c3cccc(c3)C[C@@H]12 [Compound A1-71] | –
22 | 1 to 10 | CCS(=O)(=O)N[C@H]1CCCN2C(=O)CCOc3ccccc3-c3cccc(c3)C[C@@H]12 [Compound A1-72] | –
23 | 1 to 10 | CS(=O)(=O)N[C@H]1CCCN2C(=O)NCCOc3ccccc3-c3cccc(c3F)C[C@@H]12 [Compound A1-73] | –
24 | 10 to 100 | CCS(=O)(=O)N[C@H]1CCCN2C(=O)CCOc3ccccc3-c3cccc(c3)C[C@@H]12 [Compound A1-74, N-((4^2,4^3S)-5-oxo-8-oxa-4(2,1)-piperidina-1(1,2),2(1.3)-dibenzenacyclo-octaphane-4^3-yl)ethanesulfonamide] | –
25 | 10 to 100 | CN(C)S(=O)(=O)N[C@@H]1CCCN2C(=O)CCOc3ccccc3-c3cccc(c3)C[C@H]12 [Compound A1-75] | –
26 | 1 to 10 | CN(C)S(=O)(=O)N[C@H]1CCCN2C(=O)CCOc3ccccc3-c3cccc(c3)C[C@@H]12 [Compound A1-76, N-((4^2S,4^3S)-5-oxo-8-oxa-4(2,1)-piperidina-1(1,2),2(1,3)-dibenzenacyclooctaphane-4^3-yl)-N,N-dimethylsulfuric diamide] | –
27 | 10 to 100 | CN(C)S(=O)(=O)N[C@H]1CCCN2C(=O)OCCOc3ccccc3-c3cccc(c3)C[C@@H]12 [Compound A1-77] | –
28 | 1 to 10 | CS(=O)(=O)N[C@H]1CCCN2C(=O)CCOc3ccccc3-c3cccc(c3)C[C@@H]12 [Compound A1-78, N-((4^2S,4^3S)-5-oxo-8-oxa-4(2,1)-piperidina-1(1,2),2(1,3)-dibenzenacyclo-octaphane-4^3-yl)methanesulfonamide] | –
29 | 1 to 10 | CN(C)S(=O)(=O)N[C@H]1CCCN2C(=O)CCCc3ccccc3-c3cccc(c3)C[C@@H]12 [Compound A1-79] | –
30 | 1 to 10 | O=C1CCOc2ccccc2-c2cccc(c2)C[C@H]2[C@@H](NS(=O)(=O)CF)CCCN12 [Compound A1-80] | –
31 | 1 to 10 | CN1CCOc2ccccc2-c2cccc(c2)C[C@H]2[C@@H](NS(=O)(=O)N(C)C)[C@@H](F)CN2C1=O [Compound A1-81] | –
32 | 1 to 10 | CS(=O)(=O)N[C@H]1CCCN2C(=O)CCOc3ccccc3-c3cccc(c3F)C[C@@H]12 [Compound A1-82, N-((4^2S,4^3S)-22-fluoro-5-oxo-8-oxa-4(2.1)-piperidina-1(1,2),2(1.3)-dibenzenacyclooctaphane-4^3-yl)methanesulfonamide] | –
33 | 1 to 10 | COc1c2cccc1-c1ccccc1OCCC(=O)N1CCC[C@H](NS(C)(=O)=O)[C@@H]1C2 [Compound A1-83] | –
34 | 0.1 to 1 | O=C1CCOc2ccccc2-c2cccc(c2)C[C@H]2[C@@H](NS(=O)(=O)C3CC3)CCCN12 [Compound A1-84] | –
